{
  "source": "patent US20250025518A1",
  "about": "“USE OF BIFIDOBACTERIUM LACTIS BL-99 IN PROTECTION OF CARTILAGE” (Inner Mongolia Yili Industrial Group Co., Ltd., priority 2021, published 2025)",
  "system": "zebrafish cartilage",
  "assay": "Evaluation of cartilage protection efficacy: fluorescence intensity of cartilage in dexamethasone-induced zebrafish cartilage damage model",
  "assay_type": "in vivo",
  "conditions": "for Fluorescence intensity of cartilage (pixel, mean ± SE): n = 10",
  "data": [
    {"substance": "Chondroitin sulfate A sodium salt", "values": [
      {"measurement": "Fluorescence intensity of cartilage (pixel, mean ± SE)", "setting": "Table 2, 1000 μg/mL", "value": "277530 ± 20981", "unit": "pixel"},
      {"measurement": "Increased cartilage protection efficacy (%) compared with the model group", "setting": "Table 3, 1000 μg/mL", "value": 44, "unit": "%"},
      {"measurement": "Fluorescence intensity of cartilage (pixel, mean ± SE)", "setting": "Table 3, 1000 μg/mL", "value": "296517 ± 25160", "unit": "pixel"}
    ]}
  ]
}
